According to US20230085307A1, “PYRIDAZINONE COMPOUND AND HERBICIDE” (NISSAN CHEMICAL CORPORATION, priority 2019, published 2023):

Assays:
late watergrass = assay: Test Example 1: herbicidal activity, application before weed generation under submerged conditions (Table 16, symbol A); type: in vivo, late watergrass (Echinochloa oryzicola); details: amount of applied herbicide 320 g/ha
In short: (§1)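 Submerged Wagner pots (alluvial soil, 4 cm water) sown with weed seeds and planted with 2.5-leaf rice seedlings; emulsifiable concentrate diluted in water applied to water surface on sowing day. Held in greenhouse at 25-30 °C; injury scored 0-5 by herbicidal rate after three weeks.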

Japanese bulrush [1] = assay: Test Example 1: herbicidal activity, application before weed generation under submerged conditions (Table 16, symbol B); type: in vivo, Japanese bulrush (Schoenoplectus juncoides); details: amount of applied herbicide 320 g/ha
In short: as §1

Japanese bulrush [2] = assay: Test Example 2: herbicidal activity, application during weed generation under submerged conditions (Table 17, symbol B); type: in vivo, Japanese bulrush (Schoenoplectus juncoides); details: AAH 320 g/ha; application during weed generation, submerged conditions
In short: (§2)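 Alluvial soil in Wagner pots was flooded to 4 cm depth and sown with the three weeds together; pots were kept in a greenhouse at 25° C. to 30° C. At the one to two leaf stage, an emulsion formulation diluted in water to a set rate went onto the water surface; scored three weeks later.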

oval-leafed pondweed = assay: Test Example 2: herbicidal activity, application during weed generation under submerged conditions (Table 17, symbol C); type: in vivo, oval-leafed pondweed (Monochoria vaginalis); details: AAH 320 g/ha; application during weed generation, submerged conditions
In short: as §2

green foxtail [3] = assay: Test Example 4: herbicidal effect by soil treatment (Table 19, symbol G); type: in vivo, green foxtail (Setaria viridis); details: amount of applied herbicide 320 g/ha
In short: (§3)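 Step 1: sow seeds in sterilized diluvial soil, cover ~1.5 cm. Step 2: spray diluted emulsion onto soil surface at predetermined rate. Step 3: greenhouse, 25–30° C, three weeks. Step 4: grade effect on each plant by earlier criteria.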

wild oat [4] = assay: Test Example 4: herbicidal effect by soil treatment (Table 19, symbol I); type: in vivo, wild oat (Avena fatua); details: amount of applied herbicide 320 g/ha
In short: as §3

blackgrass [5] = assay: Test Example 4: herbicidal effect by soil treatment (Table 19, symbol J); type: in vivo, blackgrass (Alopecurus myosuroides); details: amount of applied herbicide 320 g/ha
In short: as §3

Italian ryegrass [6] = assay: Test Example 4: herbicidal effect by soil treatment (Table 19, symbol K); type: in vivo, Italian ryegrass (Lolium multiflorum); details: amount of applied herbicide 320 g/ha
In short: as §3

velvetleaf [7] = assay: Test Example 4: herbicidal effect by soil treatment (Table 19, symbol M); type: in vivo, velvetleaf (Abutilon theophrasti); details: amount of applied herbicide 320 g/ha
In short: as §3

redroot pigweed = assay: Test Example 4: herbicidal effect by soil treatment (Table 19, symbol N); type: in vivo, redroot pigweed (Amaranthus retroflexus); details: amount of applied herbicide 320 g/ha
In short: as §3

lambsquarters = assay: Test Example 4: herbicidal effect by soil treatment (Table 19, symbol O); type: in vivo, lambsquarters (Chenopodium album); details: amount of applied herbicide 320 g/ha
In short: as §3

persian speedwell = assay: Test Example 4: herbicidal effect by soil treatment (Table 19, symbol R); type: in vivo, Persian speedwell (Veronica persica); details: amount of applied herbicide 320 g/ha
In short: as §3

southern crabgrass = assay: Test Example 5: herbicidal effect by foliage application, plastic box (Table 20, symbol F); type: in vivo, southern crabgrass (Digitaria ciliaris); details: 320 g/ha; for F: southern crabgrass, herbicidal effect grade: foliage application, three weeks after application
In short: (§4)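 Foliar spray test: emulsion formulation diluted in water to a set application rate, sprayed onto 14-day-old plants raised in diluvial soil at 25° C to 30° C under glass. Both herbicidal effect and crop effect rated visually three weeks later.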

green foxtail [8] = assay: Test Example 5: herbicidal effect by foliage application, plastic box (Table 20, symbol G); type: in vivo, green foxtail (Setaria viridis); details: 320 g/ha; for G: green foxtail, herbicidal effect grade: foliage application, three weeks after application
In short: as §4

barnyard grass = assay: Test Example 5: herbicidal effect by foliage application, plastic box (Table 20, symbol H); type: in vivo, barnyard grass (Echinochloa crus-galli); details: 320 g/ha; for H: barnyard grass, herbicidal effect grade: foliage application, three weeks after application
In short: as §4

wild oat [9] = assay: Test Example 5: herbicidal effect by foliage application, plastic box (Table 20, symbol I); type: in vivo, wild oat (Avena fatua); details: 320 g/ha; for I: wild oat, herbicidal effect grade: foliage application, three weeks after application
In short: as §4

blackgrass [10] = assay: Test Example 5: herbicidal effect by foliage application, plastic box (Table 20, symbol J); type: in vivo, blackgrass (Alopecurus myosuroides); details: 320 g/ha; for J: blackgrass, herbicidal effect grade: foliage application, three weeks after application
In short: as §4

Italian ryegrass [11] = assay: Test Example 5: herbicidal effect by foliage application, plastic box (Table 20, symbol K); type: in vivo, Italian ryegrass (Lolium multiflorum); details: 320 g/ha; for K: Italian ryegrass, herbicidal effect grade: foliage application, three weeks after application
In short: as §4

windgrass = assay: Test Example 5: herbicidal effect by foliage application, plastic box (Table 20, symbol L); type: in vivo, windgrass (Apera spica-venti); details: 320 g/ha; for L: windgrass, herbicidal effect grade: foliage application, three weeks after application
In short: as §4

velvetleaf [12] = assay: Test Example 5: herbicidal effect by foliage application, plastic box (Table 20, symbol M); type: in vivo, velvetleaf (Abutilon theophrasti); details: 320 g/ha; for M: velvetleaf, herbicidal effect grade: foliage application, three weeks after application
In short: as §4

chickweed = assay: Test Example 5: herbicidal effect by foliage application, plastic box (Table 20, symbol P); type: in vivo, common chickweed (Stellaria media); details: 320 g/ha; for P: chickweed, herbicidal effect grade: foliage application, three weeks after application
In short: as §4

[13] = foliage application after 14-day growth, evaluated three weeks after application

| Structure (SMILES) | Herbicidal effect, A: late watergrass (late watergrass) | Herbicidal effect, B: Japanese bulrush (Japanese bulrush [1]) | herbicidal effect rating, B: Japanese bulrush (Japanese bulrush [2]) | herbicidal effect rating, C: oval-leafed pondweed (oval-leafed pondweed) | G: green foxtail, herbicidal effect grade (green foxtail [3]) | I: wild oat, herbicidal effect grade (wild oat [4]) | J: blackgrass, herbicidal effect grade (blackgrass [5]) | K: Italian ryegrass, herbicidal effect grade (Italian ryegrass [6]) | M: velvetleaf, herbicidal effect grade (velvetleaf [7]) | N: redroot pigweed, herbicidal effect grade (redroot pigweed) | O: lambsquarters, herbicidal effect grade (lambsquarters) | R: persian speedwell, herbicidal effect grade (persian speedwell) | F: southern crabgrass, herbicidal effect grade (southern crabgrass) | G: green foxtail, herbicidal effect grade (green foxtail [8]) | H: barnyard grass, herbicidal effect grade (barnyard grass) | I: wild oat, herbicidal effect grade (wild oat [9]) | J: blackgrass, herbicidal effect grade (blackgrass [10]) | K: Italian ryegrass, herbicidal effect grade (Italian ryegrass [11]) | L: windgrass, herbicidal effect grade (windgrass) | M: velvetleaf, herbicidal effect grade (velvetleaf [12]) | further results |
| --- | --- | --- | --- | --- | --- | --- | --- | --- | --- | --- | --- | --- | --- | --- | --- | --- | --- | --- | --- | --- | --- |
| CCOc1ccccc1-c1sc2cc(C)ccc2c1-c1c(O)c(C)nn(C)c1=O [3-053] | 5 (Herbicidal rate of 90% or more (almost completely withered)) | 5 (Herbicidal rate of 90% or more (almost completely withered)) | 3 (Herbicidal rate of 40% or more and less than 70%) | 3 (Herbicidal rate of 40% or more and less than 70%) | 5 (Herbicidal rate of 90% or more (almost completely withered)) | 4 (Herbicidal rate of 70% or more and less than 90%) | 3 (Herbicidal rate of 40% or more and less than 70%) | 4 (Herbicidal rate of 70% or more and less than 90%) | 0 (Herbicidal rate of 5% or less (almost no effect)) | 3 (Herbicidal rate of 40% or more and less than 70%) | 4 (Herbicidal rate of 70% or more and less than 90%) | 5 (Herbicidal rate of 90% or more (almost completely withered)) | 5 (Herbicidal rate of 90% or more (almost completely withered)) | 5 (Herbicidal rate of 90% or more (almost completely withered)) | 5 (Herbicidal rate of 90% or more (almost completely withered)) | 5 (Herbicidal rate of 90% or more (almost completely withered)) | 5 (Herbicidal rate of 90% or more (almost completely withered)) | 5 (Herbicidal rate of 90% or more (almost completely withered)) | 5 (Herbicidal rate of 90% or more (almost completely withered)) | 5 (Herbicidal rate of 90% or more (almost completely withered)) | P: chickweed, herbicidal effect grade (chickweed): 5 (Herbicidal rate of 90% or more (almost completely withered)) |
| CCCC(=O)Oc1c(C)nn(C)c(=O)c1-c1c(-c2ccc(OC)cc2)sc2c(Cl)cccc12 [4-024] | 3 (Herbicidal rate of 40% or more and less than 70%) | 2 (Herbicidal rate of 20% or more and less than 40%) | 0 (Herbicidal rate of 5% or less (almost no effect)) | 0 (Herbicidal rate of 5% or less (almost no effect)) |  |  |  |  |  |  |  |  |  |  |  |  |  |  |  |  | Herbicidal effect by soil treatment, G: green foxtail (green foxtail [3]): 2 (Herbicidal rate of 20% or more and less than 40%); Herbicidal effect by soil treatment, I: wild oat (wild oat [4]): 0 (Herbicidal rate of 5% or less (almost no effect)); Herbicidal effect by soil treatment, J: blackgrass (blackgrass [5]): 0 (Herbicidal rate of 5% or less (almost no effect)); Herbicidal effect by soil treatment, K: Italian ryegrass (Italian ryegrass [6]): 0 (Herbicidal rate of 5% or less (almost no effect)); Herbicidal effect by soil treatment, M: velvetleaf (velvetleaf [7]): 0 (Herbicidal rate of 5% or less (almost no effect)); Herbicidal effect by soil treatment, N: redroot pigweed (redroot pigweed): 3 (Herbicidal rate of 40% or more and less than 70%); Herbicidal effect by soil treatment, O: lambsquarters (lambsquarters): 0 (Herbicidal rate of 5% or less (almost no effect)); Herbicidal effect by soil treatment, R: persian speedwell (persian speedwell): 0 (Herbicidal rate of 5% or less (almost no effect)); herbicidal effect on F: southern crabgrass (evaluation grade 0-5) (southern crabgrass; [13]): 1 (Herbicidal rate of 5% or more and less than 20%); herbicidal effect on G: green foxtail (evaluation grade 0-5) (green foxtail [8]; [13]): 4 (Herbicidal rate of 70% or more and less than 90%); herbicidal effect on H: barnyard grass (evaluation grade 0-5) (barnyard grass; [13]): 4 (Herbicidal rate of 70% or more and less than 90%); herbicidal effect on I: wild oat (evaluation grade 0-5) (wild oat [9]; [13]): 0 (Herbicidal rate of 5% or less (almost no effect)); herbicidal effect on J: blackgrass (evaluation grade 0-5) (blackgrass [10]; [13]): 0 (Herbicidal rate of 5% or less (almost no effect)); herbicidal effect on K: Italian ryegrass (evaluation grade 0-5) (Italian ryegrass [11]; [13]): 4 (Herbicidal rate of 70% or more and less than 90%); herbicidal effect on L: windgrass (evaluation grade 0-5) (windgrass; [13]): 4 (Herbicidal rate of 70% or more and less than 90%); herbicidal effect on M: velvetleaf (evaluation grade 0-5) (velvetleaf [12]; [13]): 4 (Herbicidal rate of 70% or more and less than 90%); herbicidal effect on P: chickweed (evaluation grade 0-5) (chickweed; [13]): 5 (Herbicidal rate of 90% or more (almost completely withered)) |
| COCCOc1ccc2c(-c3c(O)c(C)nn(C)c3=O)c(-c3ccccc3OC)sc2c1 [3-121] | 5 (Herbicidal rate of 90% or more (almost completely withered)) | 5 (Herbicidal rate of 90% or more (almost completely withered)) | 3 (Herbicidal rate of 40% or more and less than 70%) | 3 (Herbicidal rate of 40% or more and less than 70%) | 5 (Herbicidal rate of 90% or more (almost completely withered)) | 3 (Herbicidal rate of 40% or more and less than 70%) | 5 (Herbicidal rate of 90% or more (almost completely withered)) | 5 (Herbicidal rate of 90% or more (almost completely withered)) | 5 (Herbicidal rate of 90% or more (almost completely withered)) | 5 (Herbicidal rate of 90% or more (almost completely withered)) | 5 (Herbicidal rate of 90% or more (almost completely withered)) | 5 (Herbicidal rate of 90% or more (almost completely withered)) | 5 (Herbicidal rate of 90% or more (almost completely withered)) | 5 (Herbicidal rate of 90% or more (almost completely withered)) | 5 (Herbicidal rate of 90% or more (almost completely withered)) | 5 (Herbicidal rate of 90% or more (almost completely withered)) | 5 (Herbicidal rate of 90% or more (almost completely withered)) | 5 (Herbicidal rate of 90% or more (almost completely withered)) | 5 (Herbicidal rate of 90% or more (almost completely withered)) | 5 (Herbicidal rate of 90% or more (almost completely withered)) | P: chickweed, herbicidal effect grade (chickweed): 5 (Herbicidal rate of 90% or more (almost completely withered)) |
